Measured values from US10183947B2, “Pyrazole derivatives useful as 5-lipoxygenase activating protein (FLAP) inhibitors” (ASTRAZENECA AB, priority 2015, dated 2019).
Like-named read-outs stand apart in the source and are kept apart here.

How the values were obtained:
[1] = molecular target: FLAP (human ALOX5AP expressed in COS-7 cell membranes) (Homo sapiens (Human), UniProt P20292); assay: FLAP Binding Assay (Test A), competition binding with 3H-MK591 as tracer; settings: competition with 3H-MK591 (2 nM), membranes from COS-7 cells expressing human ALOX5AP, 60 min at rt
FLAP (human ALOX5AP expressed in COS-7 cell membranes), sequence (P20292 whole entry): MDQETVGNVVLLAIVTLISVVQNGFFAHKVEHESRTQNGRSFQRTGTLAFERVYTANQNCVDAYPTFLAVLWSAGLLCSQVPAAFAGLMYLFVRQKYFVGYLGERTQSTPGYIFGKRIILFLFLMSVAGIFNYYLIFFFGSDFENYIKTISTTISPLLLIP
Method: FLAP Binding Assay (Test A) Compounds were tested in a competition binding assay using ^3H-MK591 as tracer. […] Med. Chem. […] A 100,000×g pellet from COS-7 cells stably transfected with a plasmid expressing human ALOX5AP was the source of FLAP. […] Following filtration, filter plates were dried 12 h at RT (or 50° C. for 1 hour). 50 μL scintillant was then added, the filterplates were sealed and radioactivity was measured in a microbeta counter. Specific binding was defined as total binding minus non-specific binding. Total binding was defined as ^3H-MK591 bound to membranes in the absence of competitor, non-specific binding was defined as ^3H-MK591 in the presence of 0.1 mM MK-591. IC50 values were determined by plotting % inhibition versus log compound concentration and using a one site dose response model.

[2] = tested on: LTB4 production in fresh human whole blood; assay: FLAP Whole Blood Assay (Test B), inhibition of LTB4 production; format: cell-based; settings: then calcium ionophore A23187, LTB4 by EIA
Method: FLAP Whole Blood Assay (Test B)
Compounds were tested for the inhibition of LTB4 production in fresh human whole blood obtained by venapuncture using heparin to prevent clotting. 1.5 μL compounds or DMSO carrier were dispensed into the wells of a 96-well deep-well plate in 3-fold dilution series. 500 μL hepamised whole blood was then added followed by incubation at 37° C. for 30 min (method A) or 4 h (method B). 100 μL blood was subsequently transferred in triplicate to pre-dispensed 0.5 μL 2 mM calcium ionophore (calcimycin; A23187) in a second 96-well plate. Following incubation at 37° C. for 20 min, the assays were stopped by adding 10 μL of stop solution (100 mM EGTA, pH 7.4) and the plate was transferred to ice. The plate was centrifuged at 3000 rpm at 4° C. for 10 min and […] was transferred to a fresh 96 well plate containing 90 μL pre-dispensed EIA assay buffer (0.1 M phosphate buffer+0.1% BSA). LTB4 was then measured using reagents from a commercial EIA (Cayman Chemicals). LTB4 production was defined as the LTB4 level in the presence of a given concentration of test compound minus the LTB4 level in the presence of 50 nM 5-[[4-[(2S,4R)-4-hydroxy-2-methyl-tetrahydropyran-4-yl]-2-thienyl]sulfanyl]-1-methyl-indolin-2-one. (Preparation of 5-[[4-[(2S,4R)-4-hydroxy-2-methyl-tetrahydropyran-4-yl]-2-thienyl]sulfanyl]-1-methyl-indolin-2-one was described in Org. Process Res. Dev., 2005, 9, 555-569 or EP623614 B1). Inhibition of LTB4 production was defined as the LTB4 level in the presence of a given concentration of test compound expressed as a % of the LTB4 level in the presence of DMSO. IC50 values were determined by plotting % inhibition versus log compound concentration and using a one site dose response model.

[3] = method B: compound incubated with human whole blood at 37° C. for 4 h, read-out: IC50 nM (method B)
[4] = 0.5 h, method A: compound incubated with human whole blood at 37° C. for 30 min, read-out: IC50 nM (method A)

| SMILES | IC50 [1] | IC50 [2, 3] | IC50 [2, 4] |
| --- | --- | --- | --- |
| Cn1cc(NC(=O)C2CCCCC2C(=O)c2ccc(-c3ccn[nH]3)cc2F)c(C(N)=O)n1 (single isomer, unassigned) [Example 35, 4-[({(1R,2R or 1S,2S)-2-[2-Fluoro-4-(1H-pyrazol-5-yl)benzoyl]-cyclohexyl}carbonyl)amino]-1-methyl-1H-pyrazole-3-carboxamide] | 0.083 µM | 79 nM |  |
| Cc1cc(-c2ccc(C(=O)C3CCCCC3C(=O)Nc3cnn(C)c3C(N)=O)c(F)c2)[nH]n1 (single isomer, unassigned) [Example 37, 4-[({(1R,2R or 1S,2S)-2-[2-Fluoro-4-(3-methyl-1H-pyrazol-5-yl)benzoyl]-cyclohexyl}carbonyl)amino]-1-methyl-1H-pyrazole-5-carboxamide] | 0.027 µM | 40 nM |  |
| Cc1cc(-c2ccc(C(=O)C3CCCCC3C(=O)Nc3cn[nH]c3C(N)=O)c(F)c2)[nH]n1 (single isomer, unassigned) [Example 38, 4-[({(1R,2R or 1S,2S)-2-[2-Fluoro-4-(3-methyl-1H-pyrazol-5-yl)benzoyl]cyclohexyl}carbonyl)amino]-1H-pyrazole-5-carboxamide] | 0.02 µM | 69 nM |  |
| Cc1cc(-c2ccc(C(=O)C3CCCCC3C(=O)Nc3cnn4c3C(=O)NCC4)c(F)c2)[nH]n1 (single isomer, unassigned) [Example 39, (1R,2R or 1S,2S)-2-[2-Fluoro-4-(3-methyl-1H-pyrazol-5-yl)benzoyl]-N-(4-oxo-4,5,6,7-tetrahydropyrazolo[1,5-a]pyrazin-3-yl)cyclohexanecarboxamide] | 0.009 µM | 34 nM |  |
| Cc1cc(-c2ccc(C(=O)C3CCCCC3C(=O)Nc3nonc3C(N)=O)c(F)c2)[nH]n1 (single isomer, unassigned) [Example 40, 4-[({(1R,2R or 1S,2S)-2-[2-Fluoro-4-(3-methyl-1H-pyrazol-5-yl)benzoyl]cyclohexyl}carbonyl)amino]-1,2,5-oxadiazole-3-carboxamide] | 0.07 µM |  | 208 nM |
| Cc1onc(NC(=O)C2CCCCC2C(=O)c2ccc(-c3ccn[nH]3)cc2F)c1C(N)=O (single isomer, unassigned) [Example 41, 3-[({(1R,2R or 1S,2S)-2-[2-Fluoro-4-(1H-pyrazol-5-yl)benzoyl]-cyclohexyl}carbonyl)amino]-5-methyl-1,2-oxazole-4-carboxamide] | 0.16 µM | 272 nM |  |
| Cn1ncc(NC(=O)[C@@H]2CCCC[C@H]2C(=O)c2ccc(-c3cc[nH]n3)cc2)c1C(N)=O [Example 2, 1-Methyl-4-[({(1R,2R)-2-[4-(1H-pyrazol-3-yl)benzoyl]cyclohexyl}-carbonyl)amino]-1H-pyrazole-5-carboxamide] | 0.034 µM | 60 nM |  |
| Cc1cc(-c2ccc(C(=O)[C@@H]3CCCC[C@H]3C(=O)Nc3cn[nH]c3)cc2)[nH]n1 [Example 6, (1R,2R)-2-[4-(3-Methyl-1H-pyrazol-5-yl)benzoyl]-N-(1H-pyrazol-4-yl)cyclohexanecarboxamide] | 0.057 µM | 380 nM |  |
| Cc1cc(-c2ccc(C(=O)[C@@H]3CCCC[C@H]3C(=O)Nc3cnn4c3C(=O)NCC4)cc2)[nH]n1 [Example 7, (1R,2R)-2-[4-(3-Methyl-1H-pyrazol-5-yl)benzoyl]-N-(4-oxo-4,5,6,7-tetrahydropyrazolo[1,5-a]pyrazin-3-yl)cyclohexanecarboxamide] | 0.0063 µM | 40 nM |  |
| Cn1ncc(NC(=O)[C@@H]2CCCC[C@H]2C(=O)c2ccc(-c3ccn[nH]3)cc2)c1S(C)(=O)=O [Example 8, (1R,2R)—N-[1-Methyl-5-(methylsulfonyl)-1H-pyrazol-4-yl]-2-[4-(1H-pyrazol-5-yl)benzoyl]cyclohexanecarboxamide] | 0.045 µM | 35 nM |  |
| Cc1cc(-c2ccc(C(=O)[C@@H]3CCCC[C@H]3C(=O)Nc3cn(C)nc3S(N)(=O)=O)cc2)[nH]n1 [Example 10, (1R,2R)-2-[4-(3-Methyl-1H-pyrazol-5-yl)benzoyl]-N-(1-methyl-3-sulfamoyl-1H-pyrazol-4-yl)cyclohexanecarboxamide] | 0.27 µM | 340 nM |  |
| Cc1cc(-c2ccc(C(=O)[C@@H]3CCCC[C@H]3C(=O)Nc3cnn4c3OCC4)cc2)[nH]n1 [Example 11, (1R,2R)—N-(2,3-Dihydropyrazolo[5,1-b][1,3]oxazol-7-yl)-2-[4-(3-methyl-1H-pyrazol-5-yl)benzoyl]cyclohexanecarboxamide] | 0.082 µM | 140 nM |  |
| Cc1cc(-c2ccc(C(=O)[C@@H]3CCCC[C@H]3C(=O)Nc3cn[nH]c3C(F)F)cc2)n[nH]1 [Example 15, (1R,2R)—N-[5-(Difluoromethyl)-1H-pyrazol-4-yl]-2-[4-(5-methyl-1H-pyrazol-3-yl)benzoyl]cyclohexanecarboxamide] | 0.0086 µM | 28 nM |  |
| Cc1cc(-c2ccc(C(=O)[C@@H]3CCCC[C@H]3C(=O)Nc3cnn4c3C(=O)N(C)CC4)cc2)n[nH]1 [Example 16, (1R,2R)—N-(5-Methyl-4-oxo-4,5,6,7-tetrahydropyrazolo[1,5-a]pyrazin-3-yl)-2-[4-(5-methyl-1H-pyrazol-3-yl)benzoyl]cyclohexanecarboxamide] | 0.022 µM | 41 nM |  |
| CN1CCn2ncc(NC(=O)[C@@H]3CCCC[C@H]3C(=O)c3ccc(-c4cc[nH]n4)cc3)c2C1=O [Example 17, (1R,2R)—N-(5-Methyl-4-oxo-4,5,6,7-tetrahydropyrazolo[1,5-a]pyrazin-3-yl)-2-[4-(1H-pyrazol-3-yl)benzoyl]cyclohexanecarboxamide] | 0.02 µM | 18 nM |  |
| CCn1ncc(NC(=O)[C@@H]2CCCC[C@H]2C(=O)c2ccc(-c3cc(C)n[nH]3)cc2)c1C(N)=O [Example 19, 1-Ethyl-4-[({(1R,2R)-2-[4-(3-methyl-1H-pyrazol-5-yl)benzoyl]-cyclohexyl}carbonyl)amino]-1H-pyrazole-5-carboxamide] | 0.029 µM | 80 nM |  |
| CNC(=O)c1c(NC(=O)[C@@H]2CCCC[C@H]2C(=O)c2ccc(-c3cc(C)[nH]n3)cc2)cnn1C [Example 21, N,1-Dimethyl-4-[({(1R,2R)-2-[4-(5-methyl-1H-pyrazol-3-yl)benzoyl]-cyclohexyl}carbonyl)amino]-1H-pyrazole-5-carboxamide] | 0.23 µM |  | 360 nM |
| Cc1cc(-c2ccc(C(=O)[C@@H]3CCCC[C@H]3C(=O)Nc3c(C(N)=O)n[nH]c3C)cc2)[nH]n1 [Example 22, 5-Methyl-4-[({(1R,2R)-2-[4-(3-methyl-1H-pyrazol-5-yl)benzoyl]-cyclohexyl}carbonyl)amino]-1H-pyrazole-3-carboxamide] | 0.024 µM | 740 nM |  |
| NC(=O)c1[nH]ncc1NC(=O)[C@@H]1CCCC[C@H]1C(=O)c1ccc(-c2ccn[nH]2)cc1 [Example 23, 4-[({(1R,2R)-2-[4-(1H-Pyrazol-5-yl)benzoyl]cyclohexyl}carbonyl)amino]-1H-pyrazole-5-carboxamide] | 0.035 µM | 130 nM |  |
| O=C1NCCn2ncc(NC(=O)[C@@H]3CCCC[C@H]3C(=O)c3ccc(-c4ccn[nH]4)cc3)c21 [Example 24, (1R,2R)—N-(4-Oxo-4,5,6,7-tetrahydropyrazolo[1,5-a]pyrazin-3-yl)-2-[4-(1H-pyrazol-5-yl)benzoyl]cyclohexanecarboxamide] | 0.0081 µM | 18 nM |  |
| CNS(=O)(=O)c1c(NC(=O)[C@@H]2CCCC[C@H]2C(=O)c2ccc(-c3cc(C)n[nH]3)cc2)cnn1C [Example 25, (1R,2R)—N-[1-Methyl-5-(methylsulfamoyl)-1H-pyrazol-4-yl]-2-[4-(3-methyl-1H-pyrazol-5-yl)benzoyl]cyclohexanecarboxamide] | 0.025 µM | 210 nM |  |
| Cn1cc(NC(=O)[C@@H]2CCCC[C@H]2C(=O)c2ccc(-c3ccn[nH]3)cc2)c(S(N)(=O)=O)n1 [Example 26, (1R,2R)—N-(1-Methyl-3-sulfamoyl-1H-pyrazol-4-yl)-2-[4-(1H-pyrazol-5-yl)benzoyl]cyclohexanecarboxamide] | 0.29 µM | 250 nM |  |
